Measured values published in paper PMC4352194, “Physicochemical and Biological Properties of Oxovanadium(IV), Cobalt(II) and Nickel(II) Complexes with Oxydiacetate Anions” (Biological Trace Element Research, 2014).

Assays:
[1] = Conductometric titration: limiting molar conductance and association constants; format: physicochemical; details: 298.15 K
Description: Conductometric measurements were accomplished on the Cerko Lab System microtitration unit fitted with a 5-mL Hamilton’s syringe, a CD-201 conductometric cell with the constant k = 0.096 cm^−1 (HYDROMET) and a self-made measuring cell equipped with a magnetic stirrer. The conductometric electrode was standardized with conductivity standards (aqueous KCl solutions) of conductivity 84 and 200 μS/cm, purchased from Hamilton Company. The measurements were carried out at 298.15 ± 0.10 K controlled by the Lauda E100 circulation thermostat. The titrant (5 mM [Co(ODA)(H2O)] or [Ni(ODA)(H2O)3]) was added to the titrand (0–50 % v/v DMSO-H2O) both at the same mole fraction of organic solvent, in increments of 0.01 mL, with a pause of 60 s. Each titration was repeated at least three times in order to check the reproducibility of the data. The limiting molar conductance values (Λo) and the association constants (logK ass) for the nickel(II) and cobalt(II) complexes were computed using the Shedlovsky’s and Pitt’s method. The physicochemical parameters of the binary solvents used in the calculations were taken from the literature. They are collected in Table 1.
The limiting molar conductance values (Λo) and the association constants (logK ass) for the nickel(II) and cobalt(II) complexes were computed using Shedlovsky’s and Pitt’s equations and are consequently collected in Table 4.

Pseudomonas aeruginosa = assay: Disc diffusion test; format: cell-based; details: P. aeruginosa
Description: (§1) The antimicrobial activity of complex compounds was assessed against Bacillus subtilis, Escherichia coli, Enterococcus faecalis, Pseudomonas aeruginosa, Staphylococcus aureus, Staphylococcus epidermidis (all strains were from the collection of the Department of Molecular Biology, University of Gdańsk). All bacteria were cultured in the Luria-Bertani (LB) broth at 310.15 K in the air with shaking. LB agar plates were prepared by the supplementation of LB broth with the 1.5 % bacteriological agar. Stock solutions of complex compounds were freshly prepared in the LB broth at the concentration of 25 mg/mL. Aliquots of 0.05 mL of bacterial culture at the optical density at 600 nm of 0.1 (inoculum 5 × 10^6 cells per plate) were spread on LB agar plates. Sterile filter paper discs (of 6 mm diameter) were impregnated with solutions of complex compounds prepared in the deionized water at the following amounts: 0.1, 0.2, 0.5 and 1.0 mg per disc and placed on agar plates. After an overnight incubation at 310.15 K, zones of bacterial growth inhibition were measured. Neomycin at the amount of 0.1 mg/disc was used as a control.

Escherichia coli = assay: Disc diffusion test; format: cell-based; details: E. coli
Description: as §1

[2] = Pitts method, DMSO-water 0 % v/v
[3] = Pitts method, DMSO-water 10 % v/v
[4] = Pitts method, DMSO-water 20 % v/v
[5] = Pitts method, DMSO-water 30 % v/v
[6] = Pitts method, DMSO-water 40 % v/v
[7] = Pitts method, DMSO-water 50 % v/v
[8] = Shedlovsky method, DMSO-water 0 % v/v
[9] = Shedlovsky method, DMSO-water 10 % v/v
[10] = Shedlovsky method, DMSO-water 20 % v/v
[11] = Shedlovsky method, DMSO-water 30 % v/v
[12] = Shedlovsky method, DMSO-water 40 % v/v
[13] = Shedlovsky method, DMSO-water 50 % v/v

## O.O.O.O=C(O)COCC(=O)O.[Co] [Co(ODA), [Co(ODA)(H2O)2]·H2O]
[1]; [2]
  association constant logK ass: 3.38 (±0.01)
  limiting molar conductance Λo: 226.58(±1.32) S cm^2 mol^−1
[1]; [3]
  association constant logK ass: 3.51 (±0.01)
  limiting molar conductance Λo: 173.97(±0.60) S cm^2 mol^−1
[1]; [4]
  association constant logK ass: 3.77 (±0.01)
  limiting molar conductance Λo: 134.29(±1.09) S cm^2 mol^−1
[1]; [5]
  association constant logK ass: 3.89 (±0.01)
  limiting molar conductance Λo: 92.53(±0.96) S cm^2 mol^−1
[1]; [6]
  association constant logK ass: 4.05 (±0.01)
  limiting molar conductance Λo: 57.02(±0.71) S cm^2 mol^−1
[1]; [7]
  association constant logK ass: 4.32 (±0.03)
  limiting molar conductance Λo: 29.74(±1.46) S cm^2 mol^−1
[1]; [8]
  association constant logK ass: 3.35 (±0.01)
  limiting molar conductance Λo: 223.49(±1.45) S cm^2 mol^−1
[1]; [9]
  association constant logK ass: 3.49 (±0.01)
  limiting molar conductance Λo: 171.55(±0.74) S cm^2 mol^−1
[1]; [10]
  association constant logK ass: 3.77 (±0.01)
  limiting molar conductance Λo: 133.47(±1.00) S cm^2 mol^−1
[1]; [11]
  association constant logK ass: 3.89 (±0.01)
  limiting molar conductance Λo: 92.16(±1.07) S cm^2 mol^−1
[1]; [12]
  association constant logK ass: 4.09 (±0.03)
  limiting molar conductance Λo: 55.24(±0.84) S cm^2 mol^−1
[1]; [13]
  association constant logK ass: 4.22 (±0.02)
  limiting molar conductance Λo: 28.52(±1.58) S cm^2 mol^−1
Pseudomonas aeruginosa; 500 μg/disc
  Zone of growth inhibition: 14 mm
Pseudomonas aeruginosa; 1000 μg/disc
  Zone of growth inhibition: 18 mm
Escherichia coli; 500 μg/disc
  Zone of growth inhibition: 12 mm
Escherichia coli; 1000 μg/disc
  Zone of growth inhibition: 14 mm

## O.O.O.O.O.O.O.O.O.O=C([O-])COCC(=O)[O-].O=C([O-])COCC(=O)[O-].[Ni+2].[Ni+2] [Ni(ODA), [Ni(ODA)(H2O)3]·1.5H2O]
[1]; [2]
  association constant logK ass: 3.34 (±0.01)
  limiting molar conductance Λo: 216.74(±1.08) S cm^2 mol^−1
[1]; [3]
  association constant logK ass: 3.48 (±0.01)
  limiting molar conductance Λo: 161.75(±0.93) S cm^2 mol^−1
[1]; [4]
  association constant logK ass: 3.56 (±0.01)
  limiting molar conductance Λo: 114.72(±1.55) S cm^2 mol^−1
[1]; [5]
  association constant logK ass: 3.75 (±0.01)
  limiting molar conductance Λo: 91.35(±1.33) S cm^2 mol^−1
[1]; [6]
  association constant logK ass: 4.05 (±0.01)
  limiting molar conductance Λo: 52.00(±0.50) S cm^2 mol^−1
[1]; [7]
  association constant logK ass: 4.17 (±0.04)
  limiting molar conductance Λo: 29.49(±0.92) S cm^2 mol^−1
[1]; [8]
  association constant logK ass: 3.33 (±0.01)
  limiting molar conductance Λo: 216.10(±0.74) S cm^2 mol^−1
[1]; [9]
  association constant logK ass: 3.47 (±0.01)
  limiting molar conductance Λo: 161.00(±0.95) S cm^2 mol^−1
[1]; [10]
  association constant logK ass: 3.59 (±0.01)
  limiting molar conductance Λo: 119.83(±0.83) S cm^2 mol^−1
[1]; [11]
  association constant logK ass: 3.74 (±0.01)
  limiting molar conductance Λo: 90.63(±1.37) S cm^2 mol^−1
[1]; [12]
  association constant logK ass: 4.05 (±0.02)
  limiting molar conductance Λo: 51.85(±0.61) S cm^2 mol^−1
[1]; [13]
  association constant logK ass: 4.15 (±0.03)
  limiting molar conductance Λo: 28.80(±0.48) S cm^2 mol^−1
